The text below walks through data of patent US7411002B2, “Polycationic sulfonamides and use thereof” (priority 2006, dated 2008).

What is called IC50 is the concentration at which inhibition is half-maximal.

The nature of data set [1]: Rapid-throughput BODIPY-TR cadaverine (BC) fluorescence displacement assay for binding affinity to LPS. The settings on record: half-maximal effective displacement of BODIPY-TR cadaverine probe from LPS; 50 mM Tris buffer, pH 7.4; read-out: Binding affinity (BC displacement) ED50 value. The method, then: Rapid-throughput Fluorescence Displacement Assay for quantifying binding affinities to LPS. […] Polymyxin B (PMB), a peptide antibiotic known to bind and neutralize LPS^65 serves as the positive control and reference compound for every plate, enabling the quantitative assessment of repeatability and reproducibility (CV and Z′ factors) for the assay. Automated liquid handling is performed on a Precision 2000 automated microplate pipetting system, programmed using the Precision Power software, Bio-Tek Instruments Inc., VT, USA. Results are reported as half-maximal effective displacement of probe (ED50) (Tables A-F). In all experiments, Polymyxin B (PMB), a decapeptide antibiotic, known to bind and neutralize LPS,^66-69 is used as a reference compound.

The test system of data set [2] is LPS-induced nitric oxide production in murine macrophage J774A.1 cells. The data set can be described thus: NO inhibition (Griess nitrite assay) in LPS-stimulated murine macrophage J774A.1 cells. It is filed as cell-based. The settings on record: Mus musculus, J774.A1, 10 ng/ml LPS, 16 h. The procedure: Assessment of neutralization of LPS toxicity: NO inhibition activity. Nitric oxide production is measured as total nitrite in murine macrophage J774A.1 cells using the Griess assay^70 as described previously.^71 J774A.1 cells are plated at ˜10^5/ml in a volume of 40 μl/well, in 384-well, flat-bottomed, cell culture treated microtiter plates and subsequently stimulated with 10 ng/ml lipopolysaccharide (LPS). Concurrent to LPS stimulation, serially diluted concentrations of test compounds are added to the cell medium and left to incubate for 16 h. Polymyxin B is used as reference compound in each plate. Positive-(LPS stimulation only) and negative-controls (J774A.1 medium only) are included in each experiment. Nitrite concentrations are measured by adding 40 μl of supernatant to equal volumes of Griess reagents (50 μl/well; 0.1% NED solution in ddH2O and 1% sulfanilamide, 5% phosphoric acid solution in ddH2O) and incubating for 15 minutes at room temperature in the dark. Absorbance at 535 nm is measured using a Molecular Devices Spectramax M2 multifunction plate reader (Sunnyvale, Calif.). Nitrite concentrations are interpolated from standard curves obtained from serially diluted sodium nitrite standards. IC50 values are determined for compounds that neutralize LPS inhibit NO production in a dose-dependent manner (Tables A-F). Results in this assay parallel those in the binding assay.

Data set [3] concerns LPS-induced lethality in CF-1 mice. The data set can be described thus: Mouse lethality assay (D-galactosamine-sensitized mice, supralethal LPS challenge). Type of data set: in vivo. The settings on record: FIG. 9; for mice protected from LPS lethality: 200 μg/mouse compound i.p., supralethal 200 ng LPS challenge, lethality at 24 h. The source says: Compound MQTS 2358 represents spermine-sulfonamide Series A (SPM). Compound MQTS 2383 represents homologated spermine-sulfonamide Series B (HOMO-SPM). Compound MQTS 2389 represents branched homologated spermine-sulfonamide Series D (BRANCHED-HOMO-SPM). Also included in FIG. 9 are positive control compounds MQTS 3938 and MQTS 3942 (L-Lys(C18-alkyl)-spermine and D-Lys(C18-alkyl)-spermine, respectively) previously reported.^60 As shown in this figure, i.p. dosing with these compounds affords significant protection from super-lethal challenges with LPS in this model. Dosages of 200 μg/mouse) protected 5 out of 5 mice with all compounds except MQT 2389 which appears to have toxic effects above 50 μg/mouse dosages. Furthermore, treatment with lower dosages of these compounds also affords significant protection from the toxic effects of LPS.
Mouse lethality experiments: Female, outbred, 9- to 11-week-old CF-1 mice (Charles River, Wilmington, Mass.) weighing 22-28 g are used as described elsewhere.^71 Upon arrival, the mice are allowed to acclimatize for a week prior to experimentation, housed 5 per cage in a controlled environment at the AALAC-accredited University of Kansas Animal Care Facility, and allowed access to mouse chow and water ad libitum. The animals are sensitized to the lethal effects of LPS by D-galactosamine.^74-76 The lethal dose causing 100% mortality (LD100) dose of the batch of LPS used (E. coli 0111:B4 procured from Sigma) is first determined by administering D-galactosamine (800 mg/kg) and LPS (0, 10, 20, 50, 100, 200 ng/mouse) as a single injection intraperitoneally (i.p.) in freshly prepared saline to batches of five animals in a volume of 0.2 ml. […] In experiments designed to test dose-response effects of the polycationic sulfonamides in affording protection against LPS-induced lethality, mice received graded doses of compound diluted in saline, i.p., in one flank, immediately before a supralethal (200 ng) LPS challenge, which is administered as a separate i.p. injection into the other flank. In experiments in which the temporal window of protection is to be examined, a fixed dose of 200 μg/mouse of compound is administered at various times, before, or after supralethal (200 ng/mouse) LPS challenge. Lethality is determined at 24 h post LPS challenge.

Data set [4] has as its system LPS-induced NF-κB induction in human embryonic kidney 293 cells cotransfected with TLR4, CD14 and MD2. As to the kind of experiment: Inhibition of LPS induction of NF-κB (seAP reporter) in HEK 293 cells cotransfected with TLR4, CD14 and MD2. It is filed as cell-based. The following applies: for IC50: Homo sapiens, HEK293, inhibition of LPS-induced NF-κB induction, HEK 293 TLR4/CD14/MD2 reporter cells, read-out: NFκβ inhibition IC50 value. The source says:
Assessment of Inhibition of Cytokine Induction (NF-κB): The inhibition of induction of NF-κB (a key transcripitional activator of the innate immune system, leading to uncontrolled cytokine release^72,73 which ultimately leads to multiple organ failure and the shock syndrome) is quantified using human embryonic kidney 293 cells cotransfected with TLR4 (LPS receptor), CD14 and MD2 (co-receptors), available from InvivoGen, Inc. (HEK-Bluetm, San Diego, Calif.), as per protocols provided by the vendor. Stable expression of secreted alkaline phosphatase (seAP) under control of NF-κB/AP-1 promoters is inducible by LPS, and extracellulare seAP in the supernatant is proportional to NF-κB induction. seAP is assayed spectrophotometrically using an alkaline phosphatase-specific chromogen at 620 nm using a rapid-throughput, automated protocol employing a Bio-Tek P2000 liquid handler. Results showing the ability of polycationic sulfonamide compounds to inhibit the induction of NF-κB by LPS are shown in Tables A-F.

On to `CCCCCCCCCCCCCCCCS(=O)(=O)NCCCNCCCCNCCCN` [MQTS 2358], for which the EC50 in data set [1] worked out at 3870 nM. The IC50 in data set [2] amounted to 450 nM; in data set [4] it was 280 nM. The “mice protected from LPS lethality” value in data set [3] was 5 out of 5.

Turning to `CCCCCCCCCCCCCCCCS(=O)(=O)NCCCNCCCNCCCCNCCCN` [MQTS 2383], the EC50 in data set [1] is 4710 nM. Moreover, the half-inhibitory concentration (IC50) in data set [2] is 120 nM; in data set [4], 200 nM. Also, the “mice protected from LPS lethality” value in data set [3] is recorded as 5 out of 5.

Consider `CCCCCCCCS(=O)(=O)NCCCN(CCCNCCCNCCCCNCCCN)CCCNS(=O)(=O)CCCCCCCC` [MQTS 2389, N^1-Bis[N-octanylsulfonyl-3-aminopropyl]-1,18-diamino-5,9,14-triazaoctadecane], for which the EC50 in data set [1] worked out at 2620 nM. The values for the IC50 in data set [2] and in data set [4] were 320 nM and 300 nM, respectively. For the same compound, the “dosage above which toxic effects appear” value in data set [3] (i.p. dosing in mouse lethality assay) is “above 50 μg/mouse”.

As for `CCCCCCCCCCS(=O)(=O)NCCCN(CCCNCCCCNCCCN)CCCNS(=O)(=O)CCCCCCCCCC` [MQTS 2419, N^1-Bis[N-decanylsulfonyl-3-aminopropyl]-1,14-diamino-5,10-diazabutadecane], the EC50 in data set [1] stood at 2400 nM. Further, the figures for the IC50 in data set [2] and in data set [4] were 1100 nM and 5170 nM, respectively.

For the compound `CCCCCCCCCCCCS(=O)(=O)NCCCN(CCCNCCCCNCCCN)CCCNS(=O)(=O)CCCCCCCCCCCC` [MQTS 2420, N^1-Bis[N-dodecanylsulfonyl-3-aminopropyl]-1,14-diamino-5,10-diazabutadecane], the EC50 in data set [1] amounted to 3980 nM. In addition, the IC50 in data set [2] turned out to be 2270 nM; in data set [4], 13200 nM.

Consider `CCCCCCCC(=O)NCCCN(CCCNCCCCNCCCN)CCCNC(=O)CCCCCCC` [MQTS 2421], for which, in data set [1], the EC50 was found to be 1320 nM. Moreover, the IC50 in data set [2] was determined as 9020 nM; in data set [4], 9760 nM. Besides, the “activity in words (LPS binding / cell-based cytokine inhibition, comment on Table F)” value in data set [4] (qualitative comparison with spermine-sulfonamide counterparts) is listed as “greatly diminished activity”.

For “D-Lys(C18-alkyl)-spermine [MQTS 3942, reference compound]”, the “mice protected from LPS lethality” value in data set [3] is 5 out of 5.

Take “L-Lys(C18-alkyl)-spermine [MQTS 3938, reference compound]”: the “mice protected from LPS lethality” value in data set [3] is given as 5 out of 5.
